From patent US6982082B1, “Gene therapy by cell specific targeting” (President and Fellows of Harvard College, priority 1996, dated 2006)
One block for each compound: values may come before it.

Key:
[1] = target: FKBP12 F36V (FKBP^t−) (Homo sapiens, UniProt P62942, F37V); assay: Scatchard analysis of binding of radiolabeled protein to FKBP^t−
[2] = system: signaling in cells without FKBP containing the compensatory mutation; assay: signaling in cells not transfected with compensatory FKBP; assay type: cell-based
[3] = target: FKBP (Homo sapiens, UniProt P62942); assay: binding to FKBP, same assay; settings: in words
FKBP, sequence (P62942 whole entry): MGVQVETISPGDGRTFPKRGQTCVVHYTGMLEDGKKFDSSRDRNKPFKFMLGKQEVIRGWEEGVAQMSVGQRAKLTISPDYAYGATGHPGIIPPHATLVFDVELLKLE

[4] = system: NFAT signaling in Jurkat cells, NFAT-SEAP alone (endogenous cyclophilins); assay: cellular NFAT-signaling assay, Jurkat cells transfected with NFAT-SEAP alone; assay type: cell-based
Description: (§1) FIG. 1 is a graph showing the cellular assay for calcineurin-mediated NFAT-signalling.
(§2) CypA and mutants were sub-cloned from pGEX based expression vectors into pBJ5, a eukaryotic expression vector containing an N-terminal FLAG epitope tag. The signaling assay was performed as previously described in Belshaw, P. J., Spencer, D. M., Crabtree, G. R. & Schreiber, S. L., Chemistry & Biology, 3:731–8 (1996). Briefly 10^7 Jurkat cells were electroporated with NFAT-SEAP reporter plasmid (1 μg) alone or in combination with a Cyp expression vector (5 μg). After 20 hours, cells were stimulated in 96 well plates with phorbol ester (PMA)(50 ng/mL) and ionomycin (1 μM), which mimics T cell activation and receptor signaling. […] Twenty-four hours later, cells were assayed for SEAP activity.

[5] = system: NFAT signaling in Jurkat cells, CypA wild type + NFAT-SEAP; assay: cellular NFAT-signaling assay (NFAT-SEAP reporter), Jurkat cells coexpressing wild type CypA; assay type: cell-based
Description: as §1
(§3) Since it is the composite surface of Cyp-CsA that binds to and thereby inhibits the phosphatase activity of Cn and as the modifications to both the receptor and ligand were expected to be buried in the complex, it was expected that these new receptor-ligand combinations would have the ability to inhibit calcineurin (Cn) and thus NFAT mediated gene activation. This hypothesis was confirmed by using a cellular assay in which NFAT-signaling was measured on a reporter gene, as described below.
as §2, with “activity. The data for each transfection are presented as percent SEAP activity relative to the signal for [CpSar11-CsA]=0.” for “activity.”

[6] = system: NFAT signaling in Jurkat cells, CypAgtm + NFAT-SEAP; assay: cellular NFAT-signaling assay (NFAT-SEAP reporter), Jurkat cells expressing CypAgtm; assay type: cell-based
Description: as §1, §3
as §2, with “activity. The data for each transfection are presented as percent SEAP activity relative to the signal for [CpSar11-CsA]=0.” for “activity.”

[7] = target: T1, CypA (S99T, F113G, C115M) (CypAgtm) (Homo sapiens, UniProt P62937, C115M/F113G/S99T); assay: direct fluorescence binding assay, modified CypA
T1 construct: made in house; host or cells: E. coli
T1 sequence (P62937 whole entry S99T/F113G/C115M): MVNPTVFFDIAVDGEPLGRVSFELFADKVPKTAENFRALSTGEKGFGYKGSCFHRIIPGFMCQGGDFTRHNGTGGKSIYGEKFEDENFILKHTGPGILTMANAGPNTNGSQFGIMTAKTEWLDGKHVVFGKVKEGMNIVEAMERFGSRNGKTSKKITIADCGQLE
Description: (§4) To determine CpSar11-CsA's binding characteristics, both the unmodified CypA and the modified CypA (S99T, F113G, C115M) (CypAgtm) was overexpressed in E. coli and purified according to standard techniques. The binding constants for CpSar11-CsA for each receptor was determined with a direct fluorescence binding assay according to the procedure described in Belshaw, P. J., Schoepher, J. G., Lui, K-Q., Morrison, K. L. & Schreiber, S. L., Angew Chem. Int. Ed. Engl. 34:2129–32 (1995).
(§5) Kds were determined using a direct fluorescence binding assay as previously described in Belshaw et al., supra.

[8] = target: T2, CypA wild type (Homo sapiens, UniProt P62937); assay: direct fluorescence binding assay, wild type CypA; settings: in words
T2 construct: made in house; host or cells: E. coli
T2 sequence (P62937 whole entry): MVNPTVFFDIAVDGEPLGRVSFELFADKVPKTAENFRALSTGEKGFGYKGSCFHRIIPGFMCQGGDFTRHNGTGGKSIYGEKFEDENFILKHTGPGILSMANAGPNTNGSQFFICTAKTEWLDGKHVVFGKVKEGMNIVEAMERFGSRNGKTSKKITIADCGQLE
Description: as §4, §5

[9] = system: NFAT signaling in cells expressing CypA (S99T, F113A) (CypAat); assay: cellular NFAT-signaling assay, cells expressing CypAat; assay type: cell-based
Description: as §2, with “activity. The data for each transfection are presented as percent SEAP activity relative to the signal for [CpSar11-CsA]=0.” for “activity.”
Presumably this was due to formation of endogenous Cyp-MeIle11-CsA complexes that inhibited Cn.

FKBP12 F36V (FKBP^t−), sequence (P62942 whole entry F37V): as the sequence (P62942 whole entry) above, with F37V counted along it

Compound: 9-S-methoxy-FK506
Kd ([1]; Scatchard analysis): 5 nM
binding to FKBP12F36V ([1]; in words): does bind
effect on signaling [2]: no effect on signaling
binding to endogenous FKBP [3]: does not bind

IC50 ([5]; CypA wild type + NFAT-SEAP, PMA and ionomycin stimulation, read-out: IC50 in Cellular NFAT-Signalling): > 400 nM
IC50 ([6]; CypAgtm + NFAT-SEAP, PMA and ionomycin stimulation, read-out: IC50 in Cellular NFAT-Signalling): 25 nM
Kd ([7]; CypAgtm, read-out: Binding Constant Kd): 9 nM
affinity for CypAgtm ([7]; in words): high affinity
affinity for wild type CypA [8]: little affinity
Compound: C/C=C/C[C@@H](C)[C@@H](O)[C@H]1C(=O)N[C@@H](CC)C(=O)N(C)CC(=O)N(C)[C@@H](CC(C)C)C(=O)N[C@@H](C(C)C)C(=O)N(C)[C@@H](CC(C)C)C(=O)N[C@@H](C)C(=O)N[C@H](C)C(=O)N(C)[C@@H](CC(C)C)C(=O)N(C)[C@@H](CC(C)C)C(=O)N(C)[C@@H](C2CCCC2)C(=O)N1C [CpSar11-CsA, alpha-cyclopentyl, sarcosine11-CsA]
effect on reporter gene expression ([4]; concentrations up to 400 nM, cells expressing endogenous cyclophilins alone): little or no effect
effect on reporter gene expression ([5]; concentrations up to 400 nM, cells coexpressing a wild type cyclophilin): little or no effect
inhibition of NFAT signaling ([6]; cells expressing CypAgtm): potently inhibited NFAT signaling

Compound: MeIle11-CsA
inhibition of NFAT signaling ([4]; cells transfected with the NFAT reporter gene alone (data not shown)): still inhibited NFAT signaling
inhibition of NFAT signaling [9]: potently inhibited NFAT signaling
